In US10513523B2, “Imidazopyrazines and pyrazolopyrimidines and their use as AMPA receptor modulators” (Janssen Pharmaceutica NV, priority 2015, dated 2019):

Biological target: GluA1o-γ8 (GRIA1o-CACNG8 fusion construct; TARP γ8 dependent AMPA receptor) (Homo sapiens (Human), UniProt P42261+Q8WXS5)
Experiment: Calcium flux assay (FLIPR), inhibition of glutamate response of GluA1o-γ8 channel
Type: cell-based
Settings: HEK293 cells stably expressing GRIA1o-CACNG8 fusion; 15 μM glutamate; pIC50 = negative log of IC50 in molar; read-out: GluR1-γ8 (pIC50) (converted)
Source text: This assay was used to test compounds for their ability to inhibit TARP γ8 dependent AMPA receptor activity. The AMPA receptor is a non-selective cation channel activated by glutamate. Ionotropic glutamate receptors normally desensitize too rapidly to allow detectable calcium influx in a FLIPR assay (Strange et al. (2006). “Functional characterisation of homomeric ionotropic glutamate receptors GluR1-GluR6 in a fluorescence-based high throughput screening assay.” Comb Chem High Throughput Screen 9(2): 147-158). But, this desensitization is incomplete, and a substantial steady-state current remains in the sustained presence of glutamate (Cho et al. (2007). “Two families of TARP isoforms that have distinct effects on the kinetic properties of AMPA receptors and synaptic currents.” Neuron 55(6): 890-904).
An in vitro assay was used to determine the potency of test compounds as inhibitors of the glutamate response of the channel formed by GluA1o-γ8. To ensure a 1:1 stoichiometry of GluA10 and γ8 subunits in the expressed channel, a fusion of the cDNAs for GRIA1o and CACNG8 was used. Following Shi et al (2009) “The stoichiometry of AMPA receptors and TARPs varies by neuronal cell type.” Neuron 62(5): […]), the C-terminus of the cDNA for GRI1o was fused to the N-terminus of the cDNA for γ8. The linker sequence was […]. […] A clonal cell line in HEK293 cells stably expressing this construct, with a geneticin selection marker, was generated for use in this assay. Cell expressing the GRIA1o-CACNG8 fusion construct were grown in a monolayer in 96- or 384-well microtiter plates. They were washed with assay buffer (135 mM NaCl, 4 mM KCl, 3 mM CaCl2, 1 mM MgCl2, 5 mM glucose, 10 mM HEPES, pH 7.4, 300 mOs) using a Biotek EL405 plate washer. The cells were then loaded with a calcium-sensitive dye (Calcium-5 or Calcium-6, Molecular Devices) and the test compounds at a range of concentrations. Calcium flux following the addition of 15 μM glutamate was monitored using a Molecular Devices FLIPR Tetra.
The fluorescence in each well was normalized to the fluorescence of negative and positive control wells. […] The responses to glutamate as functions of the test compound concentrations were fitted to a four-parameter logistic function. The fitted parameter corresponding to the midpoint was taken to be the potency of inhibition of the compound.

Chain of GluA1o-γ8 (GRIA1o-CACNG8 fusion construct; TARP γ8 dependent AMPA receptor) (P42261 other isoform, or with tags, fused parts or gaps): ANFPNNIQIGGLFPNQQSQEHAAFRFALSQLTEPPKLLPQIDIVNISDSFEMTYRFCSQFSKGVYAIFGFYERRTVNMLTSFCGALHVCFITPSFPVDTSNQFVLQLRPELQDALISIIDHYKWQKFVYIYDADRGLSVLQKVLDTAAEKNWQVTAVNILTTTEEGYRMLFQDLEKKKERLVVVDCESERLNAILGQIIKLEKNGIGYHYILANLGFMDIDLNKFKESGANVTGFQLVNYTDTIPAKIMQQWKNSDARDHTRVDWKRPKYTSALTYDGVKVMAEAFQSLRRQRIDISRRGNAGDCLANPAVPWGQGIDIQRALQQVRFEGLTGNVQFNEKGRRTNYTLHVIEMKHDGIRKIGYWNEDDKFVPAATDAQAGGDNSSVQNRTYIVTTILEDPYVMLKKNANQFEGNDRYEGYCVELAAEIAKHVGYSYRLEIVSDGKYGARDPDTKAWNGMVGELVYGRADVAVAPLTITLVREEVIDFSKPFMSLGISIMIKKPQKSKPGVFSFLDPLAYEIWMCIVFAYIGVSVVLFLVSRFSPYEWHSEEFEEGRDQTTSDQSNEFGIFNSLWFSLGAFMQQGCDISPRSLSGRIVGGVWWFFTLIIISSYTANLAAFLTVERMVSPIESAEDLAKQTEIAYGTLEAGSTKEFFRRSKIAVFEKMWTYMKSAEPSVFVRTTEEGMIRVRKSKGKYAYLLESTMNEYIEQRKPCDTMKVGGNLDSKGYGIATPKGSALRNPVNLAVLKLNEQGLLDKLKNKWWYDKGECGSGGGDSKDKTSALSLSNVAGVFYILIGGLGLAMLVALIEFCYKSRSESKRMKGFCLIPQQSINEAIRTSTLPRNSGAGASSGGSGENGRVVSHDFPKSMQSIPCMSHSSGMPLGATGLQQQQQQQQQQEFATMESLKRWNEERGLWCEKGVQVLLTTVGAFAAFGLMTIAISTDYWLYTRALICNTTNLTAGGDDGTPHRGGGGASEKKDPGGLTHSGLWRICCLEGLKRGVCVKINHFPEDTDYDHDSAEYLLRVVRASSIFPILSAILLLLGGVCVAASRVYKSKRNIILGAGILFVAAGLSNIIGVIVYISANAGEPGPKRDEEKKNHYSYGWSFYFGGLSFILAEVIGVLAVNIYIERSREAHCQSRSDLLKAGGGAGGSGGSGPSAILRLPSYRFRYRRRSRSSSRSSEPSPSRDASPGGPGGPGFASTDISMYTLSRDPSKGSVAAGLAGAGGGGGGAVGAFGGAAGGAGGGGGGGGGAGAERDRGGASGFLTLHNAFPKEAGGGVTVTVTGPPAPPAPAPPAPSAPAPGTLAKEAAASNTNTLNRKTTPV

| IC50 [nM] | Structure (SMILES) |
| --- | --- |
| 63.1 | O=C1Cc2cc(-c3c(C4CCCC4)nn4c(N5CCOCC5)nccc34)ccc2N1 [Example 203, 5-(2-Cyclopentyl-7-morpholino-pyrazolo[1,5-c]pyrimidin-3-yl)indolin-2-one] |
| 63.1 | CC(C)(C)c1nc2c(N3CCC(=O)CC3)nccn2c1-c1ccc2c(c1)CC(=O)N2 [Example 220, 5-[2-tert-Butyl-8-(4-oxo-1-piperidyl)imidazo[1,2-a]pyrazin-3-yl]indolin-2-one] |
| > 10000 | CC(C)(C)c1nn2cnccc2c1-c1ccc2c(c1)CC(=O)N2 [Example 165, 5-(2-tert-Butylpyrazolo[1,5-c]pyrimidin-3-yl)indolin-2-one] |
| 631 | O=C1Cc2cc(-c3c(-c4ccc(F)cc4)nn4cnccc34)ccc2N1 [Example 175, 5-[2-(4-Fluorophenyl)pyrazolo[1,5-c]pyrimidin-3-yl]indolin-2-one] |
| 2 | N#Cc1ccc(-c2nc3c(N4CCOCC4)nccn3c2-c2ccc3c(c2)CC(=O)N3)cc1 [Example 102, 4-[8-Morpholino-3-(2-oxoindolin-5-yl)imidazo[1,2-a]pyrazin-2-yl]benzonitrile] |
| 0.0794 | O=C1Cc2cc(-c3c(-c4ccc(F)cc4)nc4c(N5CCC(F)CC5)nccn34)ccc2N1 [Example 74, 5-[2-(4-Fluorophenyl)-8-(4-fluoro-1-piperidyl)imidazo[1,2-a]pyrazin-3-yl]indolin-2-one] |
| 31.6 | O=C1CN(c2nccn3c(-c4ccc5c(c4)CC(=O)N5)c(C(=O)c4ccccc4)nc23)CCN1 [Example 246, 5-[2-Benzoyl-8-(3-oxopiperazin-1-yl)imidazo[1,2-a]pyrazin-3-yl]indolin-2-one] |
| 5.01 | O=C1Cc2cc(-c3c(-c4ccc(F)cc4)nc4c(N5CC6(COC6)C5)nccn34)ccc2N1 [Example 24, 5-[2-(4-Fluorophenyl)-8-(6-oxa-2-azaspiro[3.3]heptan-2-yl)imidazo[1,2-a]pyrazin-3-yl]indolin-2-one] |
| 0.158 | O=C1Cc2cc(-c3c(-c4ccccc4)nn4c(N5CCC(O)CC5)nccc34)ccc2N1 [Example 187, 5-[7-(4-Hydroxy-1-piperidyl)-2-phenyl-pyrazolo[1,5-c]pyrimidin-3-yl]indolin-2-one] |
| 0.126 | O=C1Cc2cc(-c3c(-c4ccc(F)cc4)nc4c(N5CCOCC5)ncc(Cl)n34)ccc2N1 [Example 163, 5-[5-Chloro-2-(4-fluorophenyl)-8-morpholino-imidazo[1,2-a]pyrazin-3-yl]indolin-2-one] |
| 3.98 | O=S1(=O)Cc2cc(-c3c(-c4ccc(F)cc4)nc4c(N5CCOCC5)nccn34)ccc2N1 [Example 117, 5-[2-(4-Fluorophenyl)-8-morpholino-imidazo[1,2-a]pyrazin-3-yl]-1,3-dihydro-2,1-benzothiazole 2,2-dioxide] |
| 1.26 | N#Cc1ccc(-c2nc3c(N4CCOCC4)nccn3c2-c2ccc3[nH]c(=O)[nH]c3c2)cc1 [Example 105, 4-[8-Morpholino-3-(2-oxo-1,3-dihydrobenzimidazol-5-yl)imidazo[1,2-a]pyrazin-2-yl]benzonitrile] |
| 3.16 | O=C1Cc2cc(-c3c(-c4ccc(F)cc4)nn4c(N5CC(F)(F)C5)nccc34)ccc2N1 [Example 176, 5-[7-(3,3-Difluoroazetidin-1-yl)-2-(4-fluorophenyl)pyrazolo[1,5-c]pyrimidin-3-yl]indolin-2-one] |
| 20 | Oc1ccc(-c2c(Cc3cccc(F)c3)nc3c(N4CCOCC4)nccn23)cc1 [Example 96, 4-[2-[(3-Fluorophenyl)methyl]-8-morpholino-imidazo[1,2-a]pyrazin-3-yl]phenol] |
| 0.501 | O=C1CN(c2nccn3c(-c4ccc5c(c4)CC(=O)N5)c(-c4ccc(F)cc4)nc23)CCN1 [Example 32, 5-[2-(4-Fluorophenyl)-8-(3-oxopiperazin-1-yl)imidazo[1,2-a]pyrazin-3-yl]indolin-2-one] |
| 0.158 | O=C1Cc2cc(-c3c(-c4ccc(F)cc4)nc4c(N5CC[C@@H](O)[C@H](F)C5)nccn34)ccc2N1 (relative stereo) [Example 70, (trans)-5-[8-(3-Fluoro-4-hydroxy-1-piperidyl)-2-(4-fluorophenyl)imidazo[1,2-a]pyrazin-3-yl]indolin-2-one] |

| IC50 [nM] | Structure (SMILES) |
| --- | --- |
| 31.6 | O=C1Cc2cc(-c3c(C(=O)NCc4ccccc4)nc4c(N5CCOCC5)nccn34)ccc2N1 [Example 142, N-Benzyl-8-morpholino-3-(2-oxoindolin-5-yl)imidazo[1,2-a]pyrazine-2-carboxamide] |
| 3.16 | O=C1CN(c2nccn3c(-c4ccc(O)cc4)c(-c4ccc(F)cc4)nc23)CCN1 [Example 27, 4-[2-(4-Fluorophenyl)-3-(4-hydroxyphenyl)imidazo[1,2-a]pyrazin-8-yl]piperazin-2-one] |
| 3.98 | O=c1[nH]c2ccc(-c3c(-c4ccc(F)cc4)nc4c(N5CCOCC5)ncc(F)n34)cc2[nH]1 [Example 162, 5-[5-Fluoro-2-(4-fluorophenyl)-8-morpholino-imidazo[1,2-a]pyrazin-3-yl]-1,3-dihydrobenzimidazol-2-one] |
| 398 | COc1nccc2c(-c3ccc4c(c3)CC(=O)N4)c(-c3ccccc3)nn12 [Example 206, 5-(7-Methoxy-2-phenyl-pyrazolo[1,5-c]pyrimidin-3-yl)indolin-2-one] |
| 0.501 | O=C1Cc2cc(-c3c(-c4ccc(F)c(F)c4)nc4c(N5CCOCC5)nccn34)ccc2N1 [Example 35, 5-[2-(3,4-Difluorophenyl)-8-morpholino-imidazo[1,2-a]pyrazin-3-yl]indolin-2-one] |
| 0.398 | c1ccc(-c2nn3c(N4CCOCC4)nccc3c2-c2ccc3[nH]ncc3c2)cc1 [Example 233, 4-[3-(1H-Indazol-5-yl)-2-phenyl-pyrazolo[1,5-c]pyrimidin-7-yl]morpholine] |
| 79.4 | Fc1ccc(-c2nc3c(N4CCOCC4)nccn3c2-c2ccc3[nH]nnc3c2)cc1 [Example 30, 4-[3-(1H-Benzotriazol-5-yl)-2-(4-fluorophenyl)imidazo[1,2-a]pyrazin-8-yl]morpholine] |
| 1.58 | O=C1Cc2cc(-c3c(-c4ccc(F)cc4)nc4c(N5CCC5)nccn34)ccc2N1 [Example 58, 5-[8-(Azetidin-1-yl)-2-(4-fluorophenyl)imidazo[1,2-a]pyrazin-3-yl]indolin-2-one] |
| 3.98 | CN(C)c1nccn2c(-c3ccc4c(c3)CC(=O)N4)c(C(=O)c3ccccc3)nc12 [Example 152, 5-[2-Benzoyl-8-(dimethylamino)imidazo[1,2-a]pyrazin-3-yl]indolin-2-one] |
| 501 | O=C(Nc1ccncc1)c1nc2c(N3CCOCC3)nccn2c1-c1ccc2[nH]c(=O)[nH]c2c1 [Example 147, 8-Morpholino-3-(2-oxo-1,3-dihydrobenzimidazol-5-yl)-N-(4-pyridyl)imidazo[1,2-a]pyrazine-2-carboxamide] |
| 15.8 | O=S1(=O)Cc2cc(-c3c(-c4ccc(F)cc4)nc4c(N5CC6(COC6)C5)nccn34)ccc2N1 [Example 108, 5-(2-(4-Fluorophenyl)-8-(2-oxa-6-azaspiro[3.3]heptan-6-yl)imidazo[1,2-a]pyrazin-3-yl)-1,3-dihydrobenzo[c]isothiazole 2,2-dioxide] |
| 501 | CN(C(=O)c1nc2c(N3CCOCC3)nccn2c1-c1ccc2[nH]c(=O)[nH]c2c1)c1ccccc1 [Example 145, N-Methyl-8-morpholino-3-(2-oxo-1,3-dihydrobenzimidazol-5-yl)-N-phenyl-imidazo[1,2-a]pyrazine-2-carboxamide] |
| 0.501 | O=C1Cc2cc(-c3c(-c4ccc(F)cc4)nc4c(N5CC(F)C5)nccn34)ccc2N1 [Example 59, 5-[8-(3-Fluoroazetidin-1-yl)-2-(4-fluorophenyl)imidazo[1,2-a]pyrazin-3-yl]indolin-2-one] |
| 0.251 | O=C1Cc2cc(-c3c(-c4ccccc4)nc4c(N5CCC(CF)CC5)nccn34)ccc2N1 [Example 76, 5-[8-[4-(Fluoromethyl)-1-piperidyl]-2-phenyl-imidazo[1,2-a]pyrazin-3-yl]indolin-2-one] |
| 1 | O=C1Cc2cc(-c3c(Cc4ccccc4)nc4c(N5CCOCC5)nccn34)ccc2N1 [Example 20, 5-(2-Benzyl-8-morpholino-imidazo[1,2-a]pyrazin-3-yl)indolin-2-one] |

| Structure (SMILES) | IC50 [nM] |
| --- | --- |
| O=C1Cc2cc(-c3c(-c4ccccc4)nn4c(OC5CCCC5)nccc34)ccc2N1 [Example 192, 5-[7-(Cyclopentoxy)-2-phenyl-pyrazolo[1,5-c]pyrimidin-3-yl]indolin-2-one] | 7.94 |
